O=C(O)c1ccccc1
solubility (mole fraction)
Settings	in chloroform	in cyclohexane	in ethanol	in n-heptane	in n-pentane	in toluene
278.15 K	0.074	–	0.128	0.005	0.004	0.035
283.15 K	0.086	0.006	0.139	0.006	0.005	0.043
293.15 K	0.114	0.009	0.166	0.01	0.007	0.062
303.15 K	0.151	0.015	0.196	0.015	0.011	0.089
313.15 K	0.196	0.025	0.234	0.022	–	0.128
323.15 K	0.253	0.039	0.276	0.033	–	0.178

— BigSolDB 2.1
